Reference: patent US20250179029A1, “DEUTERATED RETINOIDAL COMPOUNDS AND SYNTHESIS AND USES THEREOF” (UNIVERSITY OF MARYLAND, BALTIMORE, priority 2022, published 2025)
Where two headings read alike, the source gives them in different places.

Assays:
[1] = Plasma pharmacokinetics after single oral dose in female CD-1 mice; format: in vivo; details: for AUC(0-inf) / MRT (mean residence time) / T1/2 (elimination half-life) / Tmax / Cmax / overall Rank by Total Score: single p.o. dose 10 mg/kg, female CD-1 mice; for AUC(0-inf) / MRT (mean residence time) / T1/2 (elimination half-life) / Tmax / Cmax: plasma; for Cmax: mean of three mice; for clearance from systemic circulation (plasma concentration versus time profile) / systemic exposure: single PO dosing, mice, FIGS. 12A-12C
Procedure: The PK study was performed by the Certified Research Organization (CRO), Aragen Life Sciences Private Limited (Aragen), Hyderabad, India. All procedures of the present study were in accordance with the guidelines provided by the Committee for the Purpose of Control and Supervision of Experiments on Animals (CPCSEA) as published in The Gazette of India, Jan. 7, 2010. CPCSEA renewal number for institute is 1125/PO/Rc/S/CPCSEA on 13Feb. 2014. Institutional Animal Ethics Committee (IAEC) approval has been taken to initiate the study (IAEC Approval Number: B-011A). The details are presented in the Supplementary Materials.
To minimize the number of mice used in the PK study using a validated LC/MS/MS analysis, both individual (discrete) (set #1: Compound 5, EM=463.2937 and set #2: […], EM=463.2937) and cassette (set #3: Compounds 2, 3, and 7; EMs=459.2686, 462.2874 and 466.3125, respectively, and set #4: Compounds 4, 8, and 9; EMs=460.2749, 464.2999 and 467.3188, respectively) dosing were used.^59,66 The four sets studied were dictated by the exact molecular masses of the compounds as indicated above and in FIG. 3.
The plasma PK profiles were obtained after single oral (PO) dosing of the compounds in mice.
In Table 2, data are presented as the mean of values obtained from three female CD-1 mice. Cmax is the maximum observed plasma concentration. Tmax is the time to maximum concentration. T1/2 is the elimination half-life. AUC represents AUC (0-∞), which is the area under the concentration-time curve from time of dosing extrapolated to infinity. MRT refers to mean residence time. The number in parentheses indicate the rank order from best (1) to worst (8).

MCF7 = test: MTT antiproliferative assay, MCF7 non-TNBC cells; format: cell-based; details: Homo sapiens, mean of three independent experiments
Procedure: (§1) Compounds 2, 4, 8 and 9, as well as paclitaxel (PTX) were evaluated over a range of concentrations to examine their antiproliferative activities against two non-TNBC cell lines, MCF7 and SKBR3using the well-established 3-(4,5-dimethylthiazolyl-2)-2,5-diphenyl tetrazolium bromide (MTT) assay.^48,55,56 The parent non-deuterated VNLG-152R (Compound 2) was used as the positive control.
(§2) As presented in Table 1 below, the GI50 values of the deuterated Compounds 4, 8 and 9 against the MCF7 cell are identical to the GI50 value of the parent protio VNLG-152R (Compound 2). In contrast, the SKBR3 cell appears to be more sensitive to the deuterated compounds compared to the parent non-deuterated VNLG-152R (Compound 2). The reason for this difference is not understood at this time. The applicant hypothesizes that the enhanced diffusion of these deuterated molecules across the cell membrane of this cell line may result in enhanced intracellular concentrations and inhibition of its proliferation. Each data point is a mean of replicates from three independent experiments.

SKBR3 = test: MTT antiproliferative assay, SKBR3 non-TNBC cells; format: cell-based; details: Homo sapiens, SK-BR-3, mean of three independent experiments
Procedure: as §1, §2

[2] = test system: MDA-MB-231 tumor xenograft; test: Anti-tumor activity in MDA-MB-231 xenograft mouse model; format: in vivo; details: 20 mg/kg, PO, 5 days/week, 16 days
Procedure: (§3) FIGS. 13A-13D show the anti-tumor activity of VNLG-152R, Compound 4, Compound 8, and Compound 9 in xenograft mouse models. […] In FIGS. 13B and 13D, *=p<0.0001.
(§4) After confirming the improved pharmacokinetic parameters of deuterated compounds 4, 8, and 9, the anti-tumor activity of these compounds was tested in xenograft models of MDA-MB-231 and MDA-MB-468. In both models, the mice for each group were treated with either vehicle (control) or the compounds, each at 20 mg/kg, PO, 5 days/week.

[3] = test system: MDA-MB-468 tumor xenograft; test: Anti-tumor activity in MDA-MB-468 xenograft mouse model; format: in vivo; details: 20 mg/kg, PO, 5 days/week, 16 days
Procedure: as §3, §4

[4] = test system: androgen-sensitive and castration-resistant human prostate cancer cells; details: androgen-sensitive and castration-resistant human prostate cancer cells in vitro; cited from earlier work

AUC(0-inf) ([1]; mouse, po)	MRT (mean residence time) [1]	T1/2 (elimination half-life) [1]	Tmax [1]	Cmax [1]	GI50 (MCF7)	GI50 (SKBR3)	SMILES	also measured
1740 ng·h/mL	3.57 h	8.39 h	1.33 h	151.17 ng/mL			[2H]c1nc([2H])n(C2CCC(C)(C)C(/C=C/C(C)=C/C=C/C(C)=C/C(=O)Nc3ccc(F)cc3)=C2C)c1[2H] (racemic) [Compound 3, (±) 4-(Imidazolyl-2″3″5″-D3)-4-(H)-(4′-fluoro(phenyl))-(E)-retinamide]	
17600 ng·h/mL	9.06 h	12.05 h	2.50 h	1031.65 ng/mL	230 ± 250 nM	140 ± 230 nM	[2H]C1(n2ccnc2)CCC(C)(C)C(/C=C/C(C)=C/C=C/C(C)=C/C(=O)Nc2ccc(F)cc2)=C1C (racemic) [Compound 4, (±) 4-(Imidazolyl)-4-(D)-(4′-fluoro(phenyl))-(E)-retinamide]	clearance from systemic circulation (plasma concentration versus time profile) [1]: could not be detected after 8 hours; systemic exposure [1]: very low systemic exposures; overall Rank by Total Score [1]: 2nd; reduction of tumor growth [2]: 95%; tumor regression [3]: 6.6%
2700 ng·h/mL	5.49 h	4.27 h	0.67 h	500.72 ng/mL			[2H]c1nc([2H])n(C2([2H])CCC(C)(C)C(/C=C/C(C)=C/C=C/C(C)=C/C(=O)Nc3ccc(F)cc3)=C2C)c1[2H] (racemic) [Compound 5, (±) 4-(Imidazolyl-2″3″5″-D3)-4-(D)-(4′-fluoro(phenyl))-(E)-retinamide]	
1730 ng·h/mL	4.63 h	4.90 h		272.72 ng/mL			[2H]c1c([2H])c(NC(=O)/C=C(C)/C=C/C=C(C)/C=C/C2=C(C)C(n3ccnc3)CCC2(C)C)c([2H])c([2H])c1F (racemic) [Compound 6, (±) 4-Imidazolyl-4(H)-(4′-fluoro(phenyl-2′3′5′6′-D4))-(E)-retinamide]	Tmax ([1]; mouse, po, read-out: Tmax): 0.83 h
2060 ng·h/mL	2.89 h	4.34 h	0.83 h	454.97 ng/mL			[2H]c1nc([2H])n(C2CCC(C)(C)C(/C=C/C(C)=C/C=C/C(C)=C/C(=O)Nc3c([2H])c([2H])c(F)c([2H])c3[2H])=C2C)c1[2H] (racemic) [Compound 7, (±) 4-(Imidazolyl-2″3″5″-D3)-4-(H)-(4′-fluoro(phenyl-2′3′5′6′-D4))-(E)-retinamide]	
22600 ng·h/mL	8.92 h	10.28 h	2.67 h	1615.81 ng/mL	220 ± 130 nM	100 ± 140 nM	[2H]c1nc([2H])n(C2([2H])CCC(C)(C)C(/C=C/C(C)=C/C=C/C(C)=C/C(=O)Nc3c([2H])c([2H])c(F)c([2H])c3[2H])=C2C)c1[2H] (racemic) [Compound 9, (±) 4-(Imidazolyl-2″3″5″-D3)-4-(D)-(4′-fluoro(phenyl-2′3′5′6′-D4))-(E)-retinamide]	tumor regression [2]: 67%; tumor regression [3]: 37%

Continued, compound first:

SMILES	AUC(0-inf) ([1]; mouse, po)	MRT (mean residence time) [1]	T1/2 (elimination half-life) [1]	Tmax [1]	Cmax [1]	GI50 (MCF7)	GI50 (SKBR3)	also measured
[2H]c1c([2H])c(NC(=O)/C=C(C)/C=C/C=C(C)/C=C/C2=C(C)C([2H])(n3ccnc3)CCC2(C)C)c([2H])c([2H])c1F (racemic) [Compound 8, (±) 4-(Imidazolyl)-4-(D)-(4′-fluoro(phenyl-2′3′5′6′-D4))-(E)-retinamide]	15500 ng·h/mL	8.48 h	10.20 h	0.75 h	1361.22 ng/mL	330 ± 140 nM	110 ± 200 nM	clearance from systemic circulation (plasma concentration versus time profile) [1]: could not be detected after 8 hours; systemic exposure [1]: very low systemic exposures; overall Rank by Total Score [1]: 3rd; reduction of tumor growth [2]: 95%; reduction of tumor growth [3]: 93%
CC1=C(/C=C/C(C)=C/C=C/C(C)=C/C(=O)Nc2ccc(F)cc2)C(C)(C)CCC1=O [Compound 16, 4-Oxo-(4′-fluoro(phenyl))-(E)-retinamide]		9.06 h	12.05 h					
CC(=O)O[C@H]1C(=O)[C@@]2(C)[C@H]([C@H](OC(=O)c3ccccc3)[C@]3(O)C[C@H](OC(=O)[C@H](O)[C@@H](NC(=O)c4ccccc4)c4ccccc4)C(C)=C1C3(C)C)[C@]1(OC(C)=O)CO[C@@H]1C[C@@H]2O [Paclitaxel, paclitaxel, reference compound]						60 ± 120 nM	60 ± 120 nM	
CC1=C(/C=C/C(C)=C/C=C/C(C)=C/C(=O)Nc2ccccc2O)C(C)(C)CCC1n1ccnc1 (centres unmarked) [VNLG-147, (2E,4E,6E,8E)-N-(2-hydroxyphenyl)-9-(3-imidazolyl-2,6,6-trimethylcyclohex-1-enyl)-3,7-dimethylnona-2,4,6,8-tetraenamide]								anti-proliferative and anti-metastatic activities [4]: potent
CC1=C(/C=C/C(C)=C/C=C/C(C)=C/C(=O)Nc2ccccc2)C(C)(C)CCC1n1ccnc1 (centres unmarked) [VNLG-153, (2E,4E,6E,8E)-9-(3-imidazolyl-2,6,6-trimethylcyclohex-1-enyl)-3,7-dimethyl-N-phenylnona-2,4,6,8-tetraenamide]								anti-proliferative and anti-metastatic activities [4]: potent
